The record followed here is patent US20260325533A1, “CDK INHIBITOR COMPOUNDS” (ALEKSIA THERAPEUTICS, INC., priority 2023, published 2026).

Format in all cases: biochemical
One test concerns the target CDK1/CCNB1 (Homo sapiens, UniProt P06493). Briefly: CDK1 homogeneous time-resolved fluorescence (HTRF) kinase assay. The settings on record: CDK1/CCNB. A digest of the protocol:
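0.5 nM CDK1/CCNB1 was preincubated 20 min at 23 °C with compound in HEPES pH-unspecified buffer (MgCl2, EGTA, DTT, Tween 20), then reacted 60 min with 1 mM ATP and 50 nM ULight-4E-BP1 (Thr37/46) peptide. EDTA-stopped reactions were detected with 2 nM Eu-anti-phospho antibody; IC50 from 11-point half-log titrations.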
In general terms: TR-FRET usually uses a lanthanide donor and a delayed reading to cut background.

For another test, the target named is CDK2/CCNE1 (Homo sapiens, UniProt P24941). In words: CDK2 homogeneous time-resolved fluorescence (HTRF) kinase assay. The settings on record: CDK2/CCNE. A digest of the protocol: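 IC50 derived from 11-point, half-log dilutions (usually top 10 μM) of compound, 1% DMSO. Kinase (3 nM CDK2/CCNE1) was preincubated with compound 20 min, then phosphorylated 50 nM ULight-4E-BP1 peptide at 1 mM ATP for 60 min, 23 °C. Europium-antibody TR-FRET read after EDTA stop.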

The target of the next test is CDK6/CCND1 (Homo sapiens, UniProt Q00534). Briefly: CDK6 homogeneous time-resolved fluorescence (HTRF) kinase assay. As to conditions: CDK6/CCND, 1 mM ATP. A digest of the protocol: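 Recombinant CDK6/CCND1 (1 nM final) was preincubated with compound for 20 min at 23 °C in HEPES buffer with MgCl2, EGTA, DTT and Tween 20. Kinase reaction then ran 60 min at 23 °C with 1 mM ATP and 50 nM ULight-4E-BP1 (Thr37/46) peptide, and was stopped with EDTA.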
Chain of CDK6/CCND1 (Q00534 whole entry): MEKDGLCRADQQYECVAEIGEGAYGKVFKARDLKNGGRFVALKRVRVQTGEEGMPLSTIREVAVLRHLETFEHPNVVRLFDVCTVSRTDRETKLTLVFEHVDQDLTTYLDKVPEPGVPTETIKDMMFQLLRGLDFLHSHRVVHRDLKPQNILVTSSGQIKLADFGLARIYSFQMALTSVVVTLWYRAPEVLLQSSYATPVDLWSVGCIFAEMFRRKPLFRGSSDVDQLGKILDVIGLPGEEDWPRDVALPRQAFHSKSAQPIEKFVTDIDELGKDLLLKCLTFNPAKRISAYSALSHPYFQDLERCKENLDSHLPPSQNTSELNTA
Chain of CDK6/CCND1 (P24385 whole entry partner): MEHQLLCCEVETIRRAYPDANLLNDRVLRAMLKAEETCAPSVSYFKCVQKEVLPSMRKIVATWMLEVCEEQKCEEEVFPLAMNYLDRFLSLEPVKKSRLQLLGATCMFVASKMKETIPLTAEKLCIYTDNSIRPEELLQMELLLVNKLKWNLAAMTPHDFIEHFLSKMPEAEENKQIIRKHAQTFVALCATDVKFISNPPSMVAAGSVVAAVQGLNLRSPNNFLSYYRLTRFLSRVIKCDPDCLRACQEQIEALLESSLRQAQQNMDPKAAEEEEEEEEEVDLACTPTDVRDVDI

Another test addresses CDK4/CCND3 (Homo sapiens, UniProt P11802). Briefly: CDK4 homogeneous time-resolved fluorescence (HTRF) kinase assay. As to conditions: CDK4/CCND. A digest of the protocol: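 IC50 values were derived from 11-point half-log dilutions, usually starting at 10 μM. Compound was first held for 20 min at 23 °C with 1.5 nM CDK4/CCND3. 1 mM ATP and 50 nM ULight-eIF4E-BP1 (Thr37/46) substrate were then added for 60 min, and the TR-FRET 665 nm signal was measured after EDTA stop and Eu-anti-phospho-4E-BP1 detection.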

Setting [1] is: >250 nM, read-out: CDK1/CCNB IC50 >250 nM.
The mark [2] stands for this setting: 25-250 nM, read-out: CDK2/CCNE IC50, 25-250 nM.
Where [3] appears, read: >250 nM, read-out: CDK6/CCND IC50, >250 nM.
Setting [4] is: >250 nM, read-out: CDK4/CCND IC50, >250 nM.
Where [5] appears, read: <25 nM, read-out: CDK2/CCNE IC50, <25 nM.
Setting [6] is: 25-250 nM, read-out: CDK6/CCND IC50, 25-250 nM.
The mark [7] stands for this setting: 25-250 nM, read-out: CDK4/CCND IC50, 25-250 nM.
The mark [8] stands for this setting: 25-250 nM, read-out: CDK1/CCNB IC50, 25-250 nM.

The structures appear in SMILES notation. Read-outs that look alike come from different tables or passages of the source.

Chain of CDK1/CCNB1 (P06493 whole entry): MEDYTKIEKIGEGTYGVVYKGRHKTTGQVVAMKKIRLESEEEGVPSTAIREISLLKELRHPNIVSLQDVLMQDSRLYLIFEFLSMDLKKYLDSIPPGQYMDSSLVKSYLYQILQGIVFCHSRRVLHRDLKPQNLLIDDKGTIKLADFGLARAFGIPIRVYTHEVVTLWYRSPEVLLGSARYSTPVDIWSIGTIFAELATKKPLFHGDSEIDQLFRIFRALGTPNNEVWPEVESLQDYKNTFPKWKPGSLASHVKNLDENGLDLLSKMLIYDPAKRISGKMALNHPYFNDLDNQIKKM
Chain of CDK1/CCNB1 (P14635 whole entry partner): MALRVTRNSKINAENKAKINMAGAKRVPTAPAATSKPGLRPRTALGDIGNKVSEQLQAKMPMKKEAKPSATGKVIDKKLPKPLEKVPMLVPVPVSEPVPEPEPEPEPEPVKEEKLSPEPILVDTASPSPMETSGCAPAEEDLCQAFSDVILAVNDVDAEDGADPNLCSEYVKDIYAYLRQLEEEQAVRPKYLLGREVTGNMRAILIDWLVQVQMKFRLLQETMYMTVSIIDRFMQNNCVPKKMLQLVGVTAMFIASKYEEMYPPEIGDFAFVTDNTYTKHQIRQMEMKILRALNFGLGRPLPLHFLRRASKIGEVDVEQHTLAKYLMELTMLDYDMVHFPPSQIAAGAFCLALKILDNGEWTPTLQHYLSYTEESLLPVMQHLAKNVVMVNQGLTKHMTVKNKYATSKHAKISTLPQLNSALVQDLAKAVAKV
Chain of CDK4/CCND3 (P11802 whole entry): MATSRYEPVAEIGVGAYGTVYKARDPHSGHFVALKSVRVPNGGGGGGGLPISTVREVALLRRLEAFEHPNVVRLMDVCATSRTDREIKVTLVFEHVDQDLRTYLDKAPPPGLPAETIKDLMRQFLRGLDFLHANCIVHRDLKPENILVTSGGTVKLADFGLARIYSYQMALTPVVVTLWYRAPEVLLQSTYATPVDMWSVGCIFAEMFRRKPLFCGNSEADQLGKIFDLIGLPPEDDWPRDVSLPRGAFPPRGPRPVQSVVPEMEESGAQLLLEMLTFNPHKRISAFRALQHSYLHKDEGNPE
Chain of CDK4/CCND3 (P30281 whole entry partner): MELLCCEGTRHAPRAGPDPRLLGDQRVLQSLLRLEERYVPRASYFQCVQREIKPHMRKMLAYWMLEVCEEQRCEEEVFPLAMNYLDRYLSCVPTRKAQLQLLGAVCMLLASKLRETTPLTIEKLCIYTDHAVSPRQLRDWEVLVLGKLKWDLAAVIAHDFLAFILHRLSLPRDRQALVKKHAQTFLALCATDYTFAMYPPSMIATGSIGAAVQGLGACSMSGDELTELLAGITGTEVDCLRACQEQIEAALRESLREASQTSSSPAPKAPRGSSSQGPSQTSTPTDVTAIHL

Turning to `Cc1c(-c2nccc3cnc(Nc4ccc(NS(=O)(=O)c5ccc(N6CCOCC6)nc5)cc4)cc23)ccc2c1cnn2CC(C)(C)O` [Ex 780, N-(4-((5-(1-(2-hydroxy-2-methylpropyl)-4-methyl-1H-indazol-5-yl)-2,6-naphthyridin-3-yl)amino)phenyl)-6-morpholinopyridine-3-sulfonamide], the IC50 at CDK1/CCNB1 (setting [1]) is more than 250 nM; at CDK2/CCNE1 (setting [2]), 25 to 250 nM; on CDK6/CCND1 (setting [3]), more than 250 nM; at CDK4/CCND3 (setting [4]), more than 250 nM.
As for `Cc1c(-c2nccc3cnc(Nc4ccc(NS(=O)(=O)c5cnccn5)cc4)cc23)ccc2c1cnn2CC(C)(C)O` [Ex 781, N-(4-((5-(1-(2-hydroxy-2-methylpropyl)-4-methyl-1H-indazol-5-yl)-2,6-naphthyridin-3-yl)amino)phenyl)pyrazine-2-sulfonamide], the IC50 at CDK1/CCNB1 (setting [1]) was more than 250 nM; on CDK2/CCNE1 (setting [5]), less than 25 nM; on CDK6/CCND1 (setting [6]), 25 to 250 nM; on CDK4/CCND3 (setting [7]), 25 to 250 nM.
`Cc1nc(-c2ccc(S(=O)(=O)Nc3ccc(Nc4cc5c(-c6ccc7c(cnn7CC(C)(C)O)c6C)nccc5cn4)cc3)s2)cs1` [Ex 782, N-(4-((5-(1-(2-hydroxy-2-methylpropyl)-4-methyl-1H-indazol-5-yl)-2,6-naphthyridin-3-yl)amino)phenyl)-5-(2-methylthiazol-4-yl)thiophene-2-sulfonamide]: the IC50 at CDK1/CCNB1 (setting [1]) is more than 250 nM; on CDK2/CCNE1 (>250 nM, read-out: CDK2/CCNE IC50, >250 nM) it was more than 250 nM; at CDK6/CCND1 (setting [3]), more than 250 nM; on CDK4/CCND3 (setting [4]) it was more than 250 nM.
With `Cc1ncc(S(=O)(=O)Nc2ccc(Nc3cc4c(-c5ccc6c(cnn6CC(C)(C)O)c5C)nccc4cn3)cc2)s1` [Ex 783, N-(4-((5-(1-(2-hydroxy-2-methylpropyl)-4-methyl-1H-indazol-5-yl)-2,6-naphthyridin-3-yl)amino)phenyl)-2-methylthiazole-5-sulfonamide], the IC50 on CDK1/CCNB1 (setting [1]) is more than 250 nM; at CDK2/CCNE1 (setting [5]), less than 25 nM; at CDK6/CCND1 (setting [3]), more than 250 nM; on CDK4/CCND3 (setting [4]), more than 250 nM.
As for `Cc1c(-c2nccc3cnc(Nc4ccc(NS(=O)(=O)c5ccc(N6CCN(C)CC6)cc5)cc4)cc23)ccc2c1cnn2CC(C)(C)O` [Ex 785, N-(4-((5-(1-(2-hydroxy-2-methylpropyl)-4-methyl-1H-indazol-5-yl)-2,6-naphthyridin-3-yl)amino)phenyl)-4-(4-methylpiperazin-1-yl)benzenesulfonamide], the IC50 on CDK1/CCNB1 (setting [1]) is more than 250 nM; at CDK2/CCNE1 (setting [5]), less than 25 nM; at CDK6/CCND1 (setting [3]), more than 250 nM; at CDK4/CCND3 (setting [4]) it was more than 250 nM.
Take `Cc1c(-c2nccc3cnc(Nc4ccc(NS(=O)(=O)c5ccc(N6CCOCC6)cc5)cc4)cc23)ccc2c1cnn2CC(C)(C)O` [Ex 786, N-(4-((5-(1-(2-hydroxy-2-methylpropyl)-4-methyl-1H-indazol-5-yl)-2,6-naphthyridin-3-yl)amino)phenyl)-4-morpholinobenzenesulfonamide]: the IC50 on CDK1/CCNB1 (setting [1]) is more than 250 nM; on CDK2/CCNE1 (setting [2]), 25 to 250 nM; at CDK6/CCND1 (setting [3]), more than 250 nM; on CDK4/CCND3 (setting [4]), more than 250 nM.
`Cc1c(-c2nccc3cnc(Nc4ccc(NS(=O)(=O)c5ccccc5)cc4)cc23)ccc2c1cnn2CC(C)(C)O` [Ex 787, N-(4-((5-(1-(2-hydroxy-2-methylpropyl)-4-methyl-1H-indazol-5-yl)-2,6-naphthyridin-3-yl)amino)phenyl)benzenesulfonamide]: the IC50 at CDK1/CCNB1 (setting [1]) is more than 250 nM; at CDK2/CCNE1 (setting [5]), less than 25 nM; on CDK6/CCND1 (setting [3]) it was more than 250 nM; at CDK4/CCND3 (setting [4]), more than 250 nM.
Take `Cc1c(-c2nccc3cnc(Nc4ccc(S(=O)(=O)NC5CCOCC5)cc4)cc23)ccc2c1cnn2CC(C)(C)O` [Ex 793, 4-((5-(1-(2-hydroxy-2-methylpropyl)-4-methyl-1H-indazol-5-yl)-2,6-naphthyridin-3-yl)amino)-N-(tetrahydro-2H-pyran-4-yl)benzenesulfonamide]: the IC50 at CDK1/CCNB1 (setting [1]) is more than 250 nM; on CDK2/CCNE1 (setting [5]) it was less than 25 nM; on CDK6/CCND1 (setting [6]), 25 to 250 nM; at CDK4/CCND3 (setting [7]) it was 25 to 250 nM.
Regarding `Cc1c(-c2nccc3cnc(Nc4ccc(S(=O)(=O)NC5CC5)cc4)cc23)ccc2c1cnn2CC(C)(C)O` [Ex 794, N-cyclopropyl-4-((5-(1-(2-hydroxy-2-methylpropyl)-4-methyl-1H-indazol-5-yl)-2,6-naphthyridin-3-yl)amino)benzenesulfonamide], the IC50 is more than 250 nM at CDK1/CCNB1 (setting [1]), less than 25 nM at CDK2/CCNE1 (setting [5]), 25 to 250 nM at CDK6/CCND1 (setting [6]) and 25 to 250 nM at CDK4/CCND3 (setting [7]).
As for `CCNS(=O)(=O)c1ccc(Nc2cc3c(-c4ccc5c(cnn5CC(C)(C)O)c4C)nccc3cn2)cc1` [Ex 795, N-ethyl-4-((5-(1-(2-hydroxy-2-methylpropyl)-4-methyl-1H-indazol-5-yl)-2,6-naphthyridin-3-yl)amino)benzenesulfonamide], the IC50 was more than 250 nM on CDK1/CCNB1 (setting [1]), less than 25 nM on CDK2/CCNE1 (setting [5]), 25 to 250 nM at CDK6/CCND1 (setting [6]) and 25 to 250 nM on CDK4/CCND3 (setting [7]).
Take `CNS(=O)(=O)c1ccc(Nc2cc3c(-c4ccc5c(cnn5CC(C)(C)O)c4C)nccc3cn2)cc1` [Ex 796, 4-((5-(1-(2-hydroxy-2-methylpropyl)-4-methyl-1H-indazol-5-yl)-2,6-naphthyridin-3-yl)amino)-N-methylbenzenesulfonamide]: the IC50 is 25 to 250 nM at CDK1/CCNB1 (setting [8]), less than 25 nM on CDK2/CCNE1 (setting [5]), 25 to 250 nM at CDK6/CCND1 (setting [6]) and 25 to 250 nM at CDK4/CCND3 (setting [7]).
Take `Cc1c(-c2nccc3cnc(Nc4ccc(S(=O)(=O)Nc5ccncn5)cc4)cc23)ccc2c1cnn2CC(C)(C)O` [Ex 797, 4-((5-(1-(2-hydroxy-2-methylpropyl)-4-methyl-1H-indazol-5-yl)-2,6-naphthyridin-3-yl)amino)-N-(pyrimidin-4-yl)benzenesulfonamide]: the IC50 at CDK1/CCNB1 (setting [1]) was more than 250 nM; at CDK2/CCNE1 (setting [2]), 25 to 250 nM; at CDK6/CCND1 (setting [3]), more than 250 nM; at CDK4/CCND3 (setting [4]), more than 250 nM.
Take `COc1ccc(NS(=O)(=O)c2ccc(Nc3cc4c(-c5ccc6c(cnn6CC(C)(C)O)c5C)nccc4cn3)cc2)nn1` [Ex 798, 4-((5-(1-(2-hydroxy-2-methylpropyl)-4-methyl-1H-indazol-5-yl)-2,6-naphthyridin-3-yl)amino)-N-(6-methoxypyridazin-3-yl)benzenesulfonamide]: the IC50 on CDK1/CCNB1 (setting [1]) was more than 250 nM; on CDK2/CCNE1 (setting [5]), less than 25 nM; at CDK6/CCND1 (setting [6]), 25 to 250 nM; at CDK4/CCND3 (setting [7]) it was 25 to 250 nM.
Turning to `Cc1c(-c2nccc3cnc(Nc4ccc(S(=O)(=O)Nc5ccc(C(F)(F)F)nn5)cc4)cc23)ccc2c1cnn2CC(C)(C)O` [Ex 799, 4-((5-(1-(2-hydroxy-2-methylpropyl)-4-methyl-1H-indazol-5-yl)-2,6-naphthyridin-3-yl)amino)-N-(6-(trifluoromethyl)pyridazin-3-yl)benzenesulfonamide], the IC50 on CDK1/CCNB1 (setting [1]) is more than 250 nM; on CDK2/CCNE1 (setting [5]), less than 25 nM; on CDK6/CCND1 (setting [3]) it was more than 250 nM; on CDK4/CCND3 (setting [4]) it was more than 250 nM.
For the compound `Cc1ccc(NS(=O)(=O)c2ccc(Nc3cc4c(-c5ccc6c(cnn6CC(C)(C)O)c5C)nccc4cn3)cc2)nn1` [Ex 800, 4-((5-(1-(2-hydroxy-2-methylpropyl)-4-methyl-1H-indazol-5-yl)-2,6-naphthyridin-3-yl)amino)-N-(6-methylpyridazin-3-yl)benzenesulfonamide], the IC50 on CDK1/CCNB1 (setting [8]) was 25 to 250 nM; at CDK2/CCNE1 (setting [5]), less than 25 nM; on CDK6/CCND1 (setting [6]), 25 to 250 nM; at CDK4/CCND3 (setting [7]), 25 to 250 nM.
For `Cc1c(-c2nccc3cnc(Nc4ccc(S(=O)(=O)Nc5cccc(C(C)(C)O)c5)cc4)cc23)ccc2c1cnn2CC(C)(C)O` [Ex 802, 4-((5-(1-(2-hydroxy-2-methylpropyl)-4-methyl-1H-indazol-5-yl)-2,6-naphthyridin-3-yl)amino)-N-(3-(2-hydroxypropan-2-yl)phenyl)benzenesulfonamide], the IC50 at CDK1/CCNB1 (setting [1]) was more than 250 nM; at CDK2/CCNE1 (setting [5]), less than 25 nM; on CDK6/CCND1 (setting [3]) it was more than 250 nM; at CDK4/CCND3 (setting [4]), more than 250 nM.
For `Cc1c(-c2nccc3cnc(Nc4ccc(S(=O)(=O)Nc5cccc(N6CCOCC6)c5)cc4)cc23)ccc2c1cnn2CC(C)(C)O` [Ex 803, 4-((5-(1-(2-hydroxy-2-methylpropyl)-4-methyl-1H-indazol-5-yl)-2,6-naphthyridin-3-yl)amino)-N-(3-morpholinophenyl)benzenesulfonamide], the IC50 at CDK1/CCNB1 (setting [1]) was more than 250 nM; on CDK2/CCNE1 (setting [5]), less than 25 nM; on CDK6/CCND1 (setting [3]) it was more than 250 nM; on CDK4/CCND3 (setting [4]) it was more than 250 nM.
